# US4463171A, “Derivatives of macrolide antibiotics” (Sanraku-Ocean Co., Ltd., priority 1982, dated 1984)
# Columns and labels:
# [1] = cited from earlier work
# [2] = cited from earlier work; remark: listed apart in the source
# [3] = tested on: Bacillus subtilis NRRL B558; assay: Antibacterial activity (minimum inhibitory concentration), tube dilution method; assay type: cell-based; conditions: Bacillus subtilis, NRRLB558; tube dilution method, brain heart infusion broth (pH 7.5); read-out: minimum inhibitory concentration, Bacillus subtilis NRRL B558
# Procedure: (§1) The antibacterial activities of some typical compounds of this invention were measured by a tube dilution method in a brain heart infusion broth (pH 7.5) as a culture medium.
# [4] = tested on: Klebsiella pneumoniae PCI602; assay: as above; assay type: cell-based; conditions: PCI602, tube dilution method, brain heart infusion broth (pH 7.5), read-out: minimum inhibitory concentration, Klebsiella pneumoniae PCI602
# Procedure: as §1
# [5] = tested on: Staphylococcus aureus 209P; assay: as above; assay type: cell-based; conditions: tube dilution method, brain heart infusion broth (pH 7.5), read-out: minimum inhibitory concentration, Staphylococcus aureus 209P
# Procedure: as §1
# [6] = tested on: Staphylococcus aureus MS9861; assay: as above; assay type: cell-based; conditions: Staphylococcus aureus, MS9861; tube dilution method, brain heart infusion broth (pH 7.5); read-out: minimum inhibitory concentration, Staphylococcus aureus MS9861
# Procedure: as §1
MIC [3],MIC [4],MIC [5],MIC [6],SMILES,antibacterial activity in vitro [1],absorbability and excretability in vivo [2]
1.6 µg/mL,> 100 µg/mL,0.4 µg/mL,3.1 µg/mL,"CCC1OC(=O)CC(O)C(C)C(OC2OC(C)C(OC3CC(C)(O)C(OC(=O)CSc4ccccc4)C(C)O3)C(N(C)C)C2O)C(CC=O)CC(C)C(=O)C=CC(C)=CC1CBr (stereo not shown) [R1=H, R3=drawing 69, AR4=Br]",–,–
0.8 µg/mL,1.6 µg/mL,0.4 µg/mL,1.6 µg/mL,"CCC1OC(=O)CC(O)C(C)C(OC2OC(C)C(OC3CC(C)(O)C(OC(=O)CC(C)C)C(C)O3)C(N(C)C)C2O)C(CC=O)CC(C)C(=O)C=CC(C)=CC1CO (stereo not shown) [R1=H, R3=drawing 66, AR4=OH, 4""-O-isovaleryl-YO-9010]",–,–

# More lines, now with the values behind:
SMILES,MIC [3],MIC [4],MIC [5],MIC [6],antibacterial activity in vitro [1],absorbability and excretability in vivo [2]
CC[C@H]1OC(=O)C[C@@H](O)[C@H](C)[C@@H](O[C@@H]2O[C@H](C)[C@@H](O[C@H]3C[C@@](C)(O)[C@@H](O)[C@H](C)O3)[C@H](N(C)C)[C@H]2O)[C@@H](CC=O)C[C@@H](C)C(=O)/C=C/C(C)=C/[C@@H]1CO[C@@H]1O[C@H](C)[C@@H](O)[C@@H](OC)[C@H]1OC [tylosin],–,–,–,–,high antibacterial activity in vitro,low
"CCC1OC(=O)CC(O)C(C)C(OC2OC(C)C(OC3CC(C)(OC(C)=O)C(OC(=O)CC(C)C)C(C)O3)C(N(C)C)C2O)C(CC=O)CC(C)C(=O)C=CC(C)=CC1COC(C)=O (stereo not shown) [(R2)=COCH3, R3=drawing 75, AR4=OCOCH3]",1.6 µg/mL,25 µg/mL,1.6 µg/mL,6.3 µg/mL,–,–
"CCC1OC(=O)CC(O)C(C)C(OC2OC(C)C(OC3CC(C)(O)C(O)C(C)O3)C(N(C)C)C2O)C(CC=O)CC(C)C(=O)C=CC(C)=CC1CBr (stereo not shown) [R1=H, R3=H, AR4=Br, 23-Deoxy-23-bromo-YO-9010]",< 0.2 µg/mL,6.3 µg/mL,< 0.2 µg/mL,0.8 µg/mL,–,–
"CCC1OC(=O)CC(O)C(C)C(OC2OC(C)C(OC3CC(C)(O)C(O)C(C)O3)C(N(C)C)C2O)C(CC=O)CC(C)C(=O)C=CC(C)=CC1COC(C)=O (stereo not shown) [R1=H, R3=H, AR4=OCOCH3]",0.4 µg/mL,25 µg/mL,0.4 µg/mL,1.6 µg/mL,–,–
